Data as given in patent publication US4411834A, “Preparation of II-deoxy anthracycline antibiotics” (Farmitalia Carlo Erba, S.p.A., priority 1978, dated 1983).
In brackets after ≈: the same amount, converted by molar mass. Like-named read-outs stand apart in the source and are kept apart here.

Tests used:
[1] = tested on: Bacillus subtilis ATCC 6633; assay: MIC, standard tube dilution procedure; assay type: cell-based; details: ATCC6633, in vitro
Experimental: (§1) The "in vitro" minimum inhibitory concentrations (MIC) of glycosides A, B, C and D were determined for certain microorganisms using the standard tube dilution procedure and are reported in Table 6.

Escherichia coli B = assay: MIC, standard tube dilution procedure; assay type: cell-based; details: in vitro
Experimental: as §1

Sarcina lutea ATCC 9341 = assay: MIC, standard tube dilution procedure; assay type: cell-based; details: Micrococcus luteus, ATCC9341, in vitro
Experimental: as §1

[2] = tested on: Staphylococcus aureus 153; assay: MIC, standard tube dilution procedure; assay type: cell-based; details: in vitro
Experimental: as §1

[3] = tested on: Staphylococcus aureus 209 P; assay: MIC, standard tube dilution procedure; assay type: cell-based; details: in vitro
Experimental: as §1

HeLa cells = assay: Effect on HeLa cells viability in vitro; assay type: cell-based; details: Homo sapiens; for activity at 0.4 µg/mL: dose 400 ng/ml; for activity at 0.05 µg/mL: dose 50 ng/ml; for activity at 0.1 µg/mL: dose 100 ng/ml; for activity at 0.2 µg/mL: dose 200 ng/ml
Experimental: (§2) The new glycosides were tested against HeLa cells in vitro (time of exposure to the drugs: 24 hours), and on L 1210 and P 388 leukemia in mice in comparison with daunomycin.
^(a) HeLa cells were exposed to the drugs for 24 hours, then plated.
Number of colonies was evaluated 5 days later.
^(b) % over untreated controls.

[4] = Toxic deaths in leukemia-bearing mice; assay type: in vivo; details: for Toxic deaths: intraperitoneally on day 1, macroscopic autopsy findings
Experimental: as §2

P 388 leukemia = assay: Effect against P 388 leukemia in mice; assay type: in vivo
Experimental: as §2
^(a) Mice were treated intraperitoneally on day 1 after tumor cell

[5] = 24 h, HeLa cells, 24 hours exposure, read-out: ID50 (the source's name)
[6] = 24 hours exposure, read-out: No. of colonies, % over untreated controls
[7] = 24 h, HeLa cells, 24 hours exposure, colonies evaluated 5 days later (Table 7), read-out: ID50 (the source's name)
[8] = 24 h, read-out: No. of colonies, % over untreated controls

SMILES | MIC [1] | MIC (Escherichia coli B) | MIC (Sarcina lutea ATCC 9341) | MIC [2] | MIC [3] | IC50 (HeLa cells; [5]) | activity at 0.4 µg/mL (HeLa cells; [6]) | IC50 (HeLa cells; [7]) | activity at 0.05 µg/mL (HeLa cells; [6]) | activity at 0.1 µg/mL (HeLa cells; [6]) | activity at 0.2 µg/mL (HeLa cells; [6]) | other results
COc1cccc2c1C(=O)c1c(cc3c(c1O)[C@@H](O[C@H]1C[C@H](N)[C@H](O)[C@H](C)O1)C[C@](O)(C(C)O)C3)C2=O (stereo partly drawn) [Glycoside B, 11-deoxy-13-dihydrodaunomycin] | 100 µg/mL (≈ 195 µM) | 100 µg/mL (≈ 195 µM) | 100 µg/mL (≈ 195 µM) | 1000 µg/mL (≈ 1950 µM) | 1000 µg/mL (≈ 1950 µM) | 0.44 µg/mL (≈ 0.857 µM) | 66% |  |  |  |  | activity at 0.8 µg/mL (HeLa cells; dose 800 ng/ml, 24 hours exposure, read-out: No. of colonies, % over untreated controls): 20%; activity at 1.6 µg/mL (HeLa cells; dose 1600 ng/ml, 24 hours exposure, read-out: No. of colonies, % over untreated controls): 0%; Toxic deaths ([4]; 500 mg/kg): 2/2
COc1cccc2c1C(=O)c1c(cc3c(c1O)[C@@H](O[C@H]1C[C@H](N)[C@H](O)[C@H](C)O1)C[C@](O)(C(=O)CO)C3)C2=O [Glycoside A, 11-deoxyadriamycin] | 100 µg/mL (≈ 190 µM) | 50 µg/mL (≈ 94.8 µM) | 100 µg/mL (≈ 190 µM) | 500 µg/mL (≈ 948 µM) | 125 µg/mL (≈ 237 µM) | 0.1 µg/mL (≈ 0.19 µM) |  | 0.105 µg/mL (≈ 0.199 µM) | 73% | 63% | 1% | activity at 0.025 µg/mL (HeLa cells; dose 25 ng/ml, 24 hours exposure, read-out: No. of colonies, % over untreated controls): 74%; Antitumor activity compared with daunomycin (in words) (P 388 leukemia; at the tolerated dose): greater than that of daunomycin; Activity against P 338 leukemia (in words) (P 388 leukemia; dose of 66 mg/kg): active; Toxicity (in words) ([4]; dose of 100 mg/kg, mice): toxic
COc1cccc2c1C(=O)c1c(O)c3c(c(O)c1C2=O)C[C@@](O)(C(C)=O)C[C@@H]3O[C@H]1C[C@H](N)[C@H](O)[C@H](C)O1 [Daunomycin, reference compound] |  |  |  |  |  |  |  |  |  |  |  | IC50 (HeLa cells; 24 h, read-out: ID50): 0.006 to 0.007 µg/mL (≈ 0.0114 to 0.0133 µM); activity at 0.00312 µg/mL (HeLa cells; [8]): 71 to 80%; activity at 0.00625 µg/mL (HeLa cells; [8]): 48 to 66%; Toxic deaths ([4]; 6.6 mg/kg): 14/26
COc1cccc2c1C(=O)c1c(cc3c(c1O)[C@@H](O[C@H]1C[C@H](N)[C@H](O)[C@H](C)O1)C[C@](O)(C(C)=O)C3)C2=O [Glycoside C, 11-deoxydaunomycin] | 50 µg/mL (≈ 97.7 µM) | 25 µg/mL (≈ 48.9 µM) | 12.5 µg/mL (≈ 24.4 µM) | 250 µg/mL (≈ 489 µM) | 62 µg/mL (≈ 121 µM) | 0.05 µg/mL (≈ 0.0977 µM) |  | 0.054 µg/mL (≈ 0.106 µM) | 54% | 44% | 3% | Toxic deaths ([4]; 100 mg/kg): 3/8; Toxic deaths ([4]; 150 mg/kg): 3/19
CC[C@]1(O)Cc2cc3c(c(O)c2[C@@H](O[C@H]2C[C@H](N)[C@H](O)[C@H](C)O2)C1)C(=O)c1c(OC)cccc1C3=O [Glycoside D, 11-deoxy-13-deoxo-daunomycin] | 100 µg/mL (≈ 201 µM) | 50 µg/mL (≈ 100 µM) | 25 µg/mL (≈ 50.2 µM) | 1000 µg/mL (≈ 2010 µM) | 250 µg/mL (≈ 502 µM) | 0.22 µg/mL (≈ 0.442 µM) | 0% |  |  | 109% | 53% | Toxic deaths ([4]; 125 mg/kg): 5/5; Toxic deaths ([4]; 250 mg/kg): 5/5
